From patent publication US20240158446A1, “CYCLIC COMPOUND HAVING SELECTIVE INHIBITORY ACTION ON KRAS OVER HRAS AND NRAS” (CHUGAI SEIYAKU KABUSHIKI KAISHA, priority 2021, published 2024)

What was measured:
[1] = molecular target: GDP-bound KRAS wild-type protein (Homo sapiens, UniProt P01116); assay: Binding to KRAS by surface plasmon resonance (SPR), Single Cycle Kinetics; conditions: SPR, Single Cycle Kinetics, 1:1 binding model; GDP-bound KRAS wild-type protein; read-out: KRAS KD
[2] = molecular target: GDP-bound HRAS wild-type protein (Homo sapiens, UniProt P01112); assay: Binding to HRAS by surface plasmon resonance (SPR), Single Cycle Kinetics; conditions: SPR; GDP-bound HRAS wild-type protein vs GDP-bound KRAS wild-type protein; KD ratio class
Sequence of GDP-bound HRAS wild-type protein (P01112 whole entry): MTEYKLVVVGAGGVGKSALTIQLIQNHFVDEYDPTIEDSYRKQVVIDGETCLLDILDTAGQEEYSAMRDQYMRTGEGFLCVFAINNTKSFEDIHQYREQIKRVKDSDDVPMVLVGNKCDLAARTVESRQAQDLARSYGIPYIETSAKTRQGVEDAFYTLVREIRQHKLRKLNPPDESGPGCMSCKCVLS

[3] = system: human lung cancer strain NCI-H441;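 note: cell proliferation inhibition after four days measured by CellTiter-Glo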
[4] = molecular target: GDP-bound NRAS wild-type protein (Homo sapiens, UniProt P01111); assay: Binding to NRAS by surface plasmon resonance (SPR), Single Cycle Kinetics; conditions: SPR; GDP-bound NRAS wild-type protein vs GDP-bound KRAS wild-type protein; KD ratio class
Sequence of GDP-bound NRAS wild-type protein (P01111 whole entry): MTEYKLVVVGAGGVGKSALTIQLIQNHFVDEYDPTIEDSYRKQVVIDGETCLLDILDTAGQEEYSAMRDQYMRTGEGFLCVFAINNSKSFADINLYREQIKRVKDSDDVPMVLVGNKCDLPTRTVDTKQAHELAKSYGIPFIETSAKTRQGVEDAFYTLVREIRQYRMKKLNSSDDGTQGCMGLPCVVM

Sequence of GDP-bound KRAS wild-type protein (P01116 whole entry): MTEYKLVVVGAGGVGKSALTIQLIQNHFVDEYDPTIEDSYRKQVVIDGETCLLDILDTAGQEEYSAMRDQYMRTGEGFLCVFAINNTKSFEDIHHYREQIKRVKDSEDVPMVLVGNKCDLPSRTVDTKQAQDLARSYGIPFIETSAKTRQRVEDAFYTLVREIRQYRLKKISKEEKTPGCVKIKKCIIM

SMILES | Kd [1] | IC50 [3] | HRAS/KRAS (ratio of KD value for HRAS to KD value for KRAS) [2] | NRAS/KRAS (ratio of KD value for NRAS to KD value for KRAS) [4]
CCO[C@@H]1C[C@H]2C(=O)NC3(CCC3)C(=O)N(C)[C@@H](C3CCCC3)C(=O)N(C)[C@H](C(=O)N3CCOCC3)CC(=O)N(C)[C@@H](CC)C(=O)N[C@@H]([C@@H](C)CC)C(=O)N3CC[C@H]3C(=O)N(C)[C@H]3C[C@@H](C)[C@@H](C)CN(C3=O)[C@@H](Cc3ccc(C(F)(F)F)cc3)C(=O)N(C)CC(=O)N[C@@H](CCc3cc(F)c(C(F)(F)F)c(F)c3)C(=O)N2C1 [PP1351] | 0.13 nM | 12.8 nM | B (a compound having 3 or more and less than 10 is denoted as B) | A (a compound having 10 or more and less than 20 is denoted as A)
CCO[C@@H]1C[C@H]2C(=O)NC3(CCCC3)C(=O)N(C)[C@@H](C3CCCC3)C(=O)N(C)[C@H](C(=O)N(C)C)CC(=O)N(C)[C@@H](CC)C(=O)N[C@@H]([C@@H](C)CC)C(=O)N(C)CC(=O)N(C)[C@H]3C[C@@H](C)[C@@H](C)CN(C3=O)[C@@H](Cc3ccc(C(F)(F)F)cc3)C(=O)N(C)CC(=O)N[C@@H](CCc3cc(F)c(C(F)(F)F)c(F)c3)C(=O)N2C1 [PP1352] | 0.024 nM | 4.6 nM | B (a compound having 3 or more and less than 10 is denoted as B) | A (a compound having 10 or more and less than 20 is denoted as A)
CCO[C@@H]1C[C@H]2C(=O)NC3(CCCC3)C(=O)N(C)[C@@H](C3CCCC3)C(=O)N(C)[C@H](C(=O)N3CCOCC3)CC(=O)N(C)[C@@H](CC)C(=O)N[C@@H]([C@@H](C)CC)C(=O)N(C)CC(=O)N(C)[C@H]3C[C@@H](C)[C@@H](C)CN(C3=O)[C@@H](Cc3ccc(C(F)(F)F)cc3)C(=O)N(C)CC(=O)N[C@@H](CCc3cc(F)c(C(F)(F)F)c(F)c3)C(=O)N2C1 [PP1353] | 0.1 nM | 3.7 nM | B (a compound having 3 or more and less than 10 is denoted as B) | A (a compound having 10 or more and less than 20 is denoted as A)
CCO[C@@H]1C[C@H]2C(=O)NC3(CCC3)C(=O)N(C)[C@@H](C3CCCC3)C(=O)N(C)[C@H](C(=O)N3CCOCC3)CC(=O)N(C)[C@@H](CC)C(=O)N[C@@H]([C@@H](C)CC)C(=O)N(C)CC(=O)N(C)[C@H]3C[C@@H](C)[C@@H](C)CN(C3=O)[C@@H](Cc3ccc(C(F)(F)F)cc3)C(=O)N(C)CC(=O)N[C@@H](CCc3cc(F)c(C(F)(F)F)c(F)c3)C(=O)N2C1 [PP1354] | 0.056 nM | 3.6 nM | B (a compound having 3 or more and less than 10 is denoted as B) | A (a compound having 10 or more and less than 20 is denoted as A)
CCO[C@@H]1C[C@H]2C(=O)NC3(CCC3)C(=O)N(C)[C@@H](C3CCCC3)C(=O)N(C)[C@H](C(=O)N3CCOCC3)CC(=O)N(C)[C@@H](CC(C)C)C(=O)N[C@@H]([C@@H](C)CC)C(=O)N3CC[C@H]3C(=O)N(C)[C@H]3C[C@@H](C)[C@@H](C)CN(C3=O)[C@@H](Cc3ccc(C(F)(F)F)cc3)C(=O)N(C)CC(=O)N[C@@H](CCc3cc(F)c(C(F)(F)F)c(F)c3)C(=O)N2C1 [PP1355] | 0.16 nM | 10.2 nM | B (a compound having 3 or more and less than 10 is denoted as B) | A (a compound having 10 or more and less than 20 is denoted as A)
CCO[C@@H]1C[C@H]2C(=O)NC3(CCCC3)C(=O)N(C)[C@@H](C3CCCC3)C(=O)N(C)[C@H](C(=O)N(C)C)CC(=O)N(C)[C@@H](CC3CC3)C(=O)N[C@@H]([C@@H](C)CC)C(=O)N(C)CC(=O)N(C)[C@H]3C[C@@H](C)[C@@H](C)CN(C3=O)[C@@H](Cc3ccc(C(F)(F)F)cc3)C(=O)N(C)CC(=O)N[C@@H](CCc3cc(F)c(C(F)(F)F)c(F)c3)C(=O)N2C1 [PP1356] | 0.047 nM | 3.3 nM | B (a compound having 3 or more and less than 10 is denoted as B) | B (a compound having 3 or more and less than 10 is denoted as B)
CCO[C@@H]1C[C@H]2C(=O)NC3(CCC3)C(=O)N(C)[C@@H](C3CCCC3)C(=O)N(C)[C@H](C(=O)N3CCOCC3)CC(=O)N(C)[C@@H](CC)C(=O)N[C@@H]([C@@H](C)CC)C(=O)N3CC[C@H]3C(=O)N(C)[C@H]3C[C@@H](C)[C@@H](C)CN(C3=O)[C@@H](Cc3ccc(C(F)(F)F)cc3)C(=O)N(C)CC(=O)N[C@@H](CCc3ccc(C(F)(F)F)c(Cl)c3)C(=O)N2C1 [PP1357] | 0.13 nM | 5.4 nM | B (a compound having 3 or more and less than 10 is denoted as B) | A (a compound having 10 or more and less than 20 is denoted as A)

Continued, in another order:

Kd [1] | IC50 [3] | SMILES | HRAS/KRAS (ratio of KD value for HRAS to KD value for KRAS) [2] | NRAS/KRAS (ratio of KD value for NRAS to KD value for KRAS) [4]
0.03 nM | 4.1 nM | CCO[C@@H]1C[C@H]2C(=O)NC3(CCCC3)C(=O)N(C)[C@@H](C3CCCC3)C(=O)N(C)[C@H](C(=O)N(C)C)CC(=O)N(C)[C@@H](CC)C(=O)N[C@@H]([C@@H](C)CC)C(=O)N(C)CC(=O)N(C)[C@H]3C[C@@H](C)[C@@H](C)CN(C3=O)[C@@H](Cc3ccc(C(F)(F)F)cc3)C(=O)N(C)CC(=O)N[C@@H](CCc3ccc(C(F)(F)F)c(Cl)c3)C(=O)N2C1 [PP1358] | B (a compound having 3 or more and less than 10 is denoted as B) | A (a compound having 10 or more and less than 20 is denoted as A)
0.068 nM | 3.2 nM | CCO[C@@H]1C[C@H]2C(=O)NC3(CCCC3)C(=O)N(C)[C@@H](C3CCCC3)C(=O)N(C)[C@H](C(=O)N3CCOCC3)CC(=O)N(C)[C@@H](CC)C(=O)N[C@@H]([C@@H](C)CC)C(=O)N(C)CC(=O)N(C)[C@H]3C[C@@H](C)[C@@H](C)CN(C3=O)[C@@H](Cc3ccc(C(F)(F)F)cc3)C(=O)N(C)CC(=O)N[C@@H](CCc3ccc(C(F)(F)F)c(Cl)c3)C(=O)N2C1 [PP1359] | B (a compound having 3 or more and less than 10 is denoted as B) | A (a compound having 10 or more and less than 20 is denoted as A)
0.055 nM | 4.9 nM | CCO[C@@H]1C[C@H]2C(=O)NC3(CCC3)C(=O)N(C)[C@@H](C3CCCC3)C(=O)N(C)[C@H](C(=O)N3CCOCC3)CC(=O)N(C)[C@@H](CC)C(=O)N[C@@H]([C@@H](C)CC)C(=O)N(C)CC(=O)N(C)[C@H]3C[C@@H](C)[C@@H](C)CN(C3=O)[C@@H](Cc3ccc(C(F)(F)F)cc3)C(=O)N(C)CC(=O)N[C@@H](CCc3ccc(C(F)(F)F)c(Cl)c3)C(=O)N2C1 [PP1360] | B (a compound having 3 or more and less than 10 is denoted as B) | A (a compound having 10 or more and less than 20 is denoted as A)
0.15 nM | 6.2 nM | CCO[C@@H]1C[C@H]2C(=O)NC3(CCC3)C(=O)N(C)[C@@H](C3CCCC3)C(=O)N(C)[C@H](C(=O)N3CCOCC3)CC(=O)N(C)[C@@H](CC(C)C)C(=O)N[C@@H]([C@@H](C)CC)C(=O)N3CC[C@H]3C(=O)N(C)[C@H]3C[C@@H](C)[C@@H](C)CN(C3=O)[C@@H](Cc3ccc(C(F)(F)F)cc3)C(=O)N(C)CC(=O)N[C@@H](CCc3ccc(C(F)(F)F)c(Cl)c3)C(=O)N2C1 [PP1361] | B (a compound having 3 or more and less than 10 is denoted as B) | A (a compound having 10 or more and less than 20 is denoted as A)
0.037 nM | 3.7 nM | CCO[C@@H]1C[C@H]2C(=O)NC3(CCCC3)C(=O)N(C)[C@@H](C3CCCC3)C(=O)N(C)[C@H](C(=O)N(C)C)CC(=O)N(C)[C@@H](CC3CC3)C(=O)N[C@@H]([C@@H](C)CC)C(=O)N(C)CC(=O)N(C)[C@H]3C[C@@H](C)[C@@H](C)CN(C3=O)[C@@H](Cc3ccc(C(F)(F)F)cc3)C(=O)N(C)CC(=O)N[C@@H](CCc3ccc(C(F)(F)F)c(Cl)c3)C(=O)N2C1 [PP1362] | B (a compound having 3 or more and less than 10 is denoted as B) | A (a compound having 10 or more and less than 20 is denoted as A)
0.32 nM | 34.7 nM | CC[C@H](C)[C@@H]1NC(=O)[C@H](CC)N(C)C(=O)C[C@@H](C(=O)N2CCOCC2)N(C)C(=O)[C@H](C2CCCC2)N(C)C(=O)C2(CCC2)NC(=O)[C@@H]2CCCN2C(=O)[C@H](CCc2cc(F)c(C(F)(F)F)c(F)c2)NC(=O)CN(C)C(=O)[C@H](Cc2ccc(C(F)(F)F)cc2)N2C[C@H](C)[C@H](C)C[C@@H](C2=O)N(C)C(=O)[C@@H]2CCN2C1=O [PP1363] | B (a compound having 3 or more and less than 10 is denoted as B) | A (a compound having 10 or more and less than 20 is denoted as A)
0.05 nM | 7.1 nM | CC[C@H](C)[C@@H]1NC(=O)[C@H](CC)N(C)C(=O)C[C@@H](C(=O)N(C)C)N(C)C(=O)[C@H](C2CCCC2)N(C)C(=O)C2(CCCC2)NC(=O)[C@@H]2CCCN2C(=O)[C@H](CCc2cc(F)c(C(F)(F)F)c(F)c2)NC(=O)CN(C)C(=O)[C@H](Cc2ccc(C(F)(F)F)cc2)N2C[C@H](C)[C@H](C)C[C@@H](C2=O)N(C)C(=O)CN(C)C1=O [PP1364] | B (a compound having 3 or more and less than 10 is denoted as B) | A (a compound having 10 or more and less than 20 is denoted as A)
